This passage reports Relative potency and Susceptibility results from ChEMBL document CHEMBL1151043, “The synthesis and antibacterial activity of 2-para-quarternary ammoniomethylphenyl-carbapenems” (1993).

For one assay, the system named is Enterobacter. As to the kind of experiment: In vitro antibacterial activity against Enterobacter relative to thienamycin. The class given is functional.
The subject of another assay is Enterococcus. The assay can be described thus: In vitro antibacterial activity against Enterococcus relative to thienamycin. The class given is functional.
Another assay relates to Serratia. As to the kind of experiment: In vitro antibacterial activity against Serratia relative to thienamycin. In kind it is functional.
A further assay deals with Staphylococcus aureus. The assay can be described thus: In vitro antibacterial activity against Staphylococcus aureus relative to thienamycin. In kind it is functional.
A further assay has as its system Proteus. As to the kind of experiment: In vitro antibacterial activity against Proteus relative to Thienamycinv. In kind it is functional, Proteus sp.
A further assay deals with Klebsiella. As to the kind of experiment: In vitro antibacterial activity against Klebsiella relative to thienamycin. The class given is functional.
In assay [1] the target is T1, Dipeptidase 1 (Sus scrofa) (UniProt P22412).
T1 sequence (whole entry): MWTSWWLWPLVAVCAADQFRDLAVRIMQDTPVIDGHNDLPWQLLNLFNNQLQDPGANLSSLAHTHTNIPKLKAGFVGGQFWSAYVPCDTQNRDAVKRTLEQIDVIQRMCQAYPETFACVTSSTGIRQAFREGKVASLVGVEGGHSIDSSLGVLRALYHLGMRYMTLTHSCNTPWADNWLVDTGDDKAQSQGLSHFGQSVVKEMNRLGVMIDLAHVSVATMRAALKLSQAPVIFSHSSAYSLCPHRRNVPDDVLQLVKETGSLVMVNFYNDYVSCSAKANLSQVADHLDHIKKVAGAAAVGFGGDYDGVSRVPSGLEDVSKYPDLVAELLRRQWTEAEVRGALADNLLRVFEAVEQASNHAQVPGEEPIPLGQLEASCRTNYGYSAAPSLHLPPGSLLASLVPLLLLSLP
The assay can be described thus: Susceptibility of compound towards porcine Dehydropeptidase-1 relative to imipenem as […] was calculated.

A further assay relates to Pseudomonas. As to the kind of experiment: In vitro antibacterial activity against Pseudomonas relative to thienamycin. In kind it is functional.
In another assay the test system is Escherichia coli. The assay can be described thus: In vitro antibacterial activity against Escherichia coli relative to thienamycin. In kind it is functional.

For the molecule `C[C@@H](O)[C@H]1C(=O)N2C(C(=O)O)=C(c3ccc(CN4CCOCC4)cc3)C[C@H]12`, the Relative potency turned out to be 5.3 in the assay on Enterobacter; 8.6 with Enterococcus; 8 with Serratia; 0.6 in the assay on Staphylococcus aureus; 10.6 in the assay with Proteus; 1.4 in the assay with Klebsiella. For the same molecule, the Relative potency with Pseudomonas stood at 0.03; in the assay with Escherichia coli, 3.5. Moreover, the Susceptibility in [1] was 0.13.
